{"source": "ChEMBL document CHEMBL3045943", "about": "“Novel N-aryl(alkaryl)-2-[(3-R-2-oxo-2H-[1,2,4]triazino[2,3-c]quinazoline-6-yl)thio]acetamides: synthesis, cytotoxicity, anticancer activity, COMPARE analysis and docking” (2013)", "format_in_all_cases": "functional", "key": {"HT-29": {"tested_on": "HT-29", "assay": "Cytotoxicity against Homo sapiens (human) HT-29 cells assessed as cell growth at 10 uM after 48 hr by SRB assay relative to control", "settings": "HT-29, 48 h, read-out: Activity"}, "ACHN": {"tested_on": "ACHN", "assay": "Cytotoxicity against Homo sapiens (human) ACHN cells assessed as cell growth at 10 uM after 48 hr by SRB assay relative to control", "settings": "read-out: Activity"}, "A498 [1]": {"tested_on": "A498", "assay": "Cytotoxicity against Homo sapiens (human) A498 cells assessed as cell growth at 10 uM after 48 hr by SRB assay relative to control", "settings": "A498, 48 h, read-out: Activity"}, "A498 [2]": {"tested_on": "A498", "assay": "Cytotoxicity against Homo sapiens (human) A498 cells after 48 hr by SRB assay", "settings": "A498, 48 h"}, "[3]": {"tested_on": "Photobacterium leiognathi", "assay": "Growth inhibition of Photobacterium leiognathi Sh1 assessed as bio-luminescence at 0.025 mg/ml after 16 to 18 hr by chronic action test relative to control", "set-up": "scale not given: the % may be the effect or the level left"}, "[4]": {"tested_on": "Photobacterium leiognathi", "assay": "Growth inhibition of Photobacterium leiognathi Sh1 assessed as bio-luminescence at 0.25 mg/ml after 16 to 18 hr by chronic action test relative to control", "set-up": "scale not given: the % may be the effect or the level left"}, "SF-268": {"tested_on": "SF-268", "assay": "Cytotoxicity against Homo sapiens (human) SF268 cells assessed as cell growth at 10 uM after 48 hr by SRB assay relative to control", "settings": "SF-268, 48 h, read-out: Activity"}, "NCI-H460 [5]": {"tested_on": "NCI-H460", "assay": "Cytotoxicity against Homo sapiens (human) NCI-H460 cells assessed as cell growth at 10 uM after 48 hr by SRB assay relative to control", "settings": "NCI-H460, 48 h, read-out: Activity"}, "COLO 205": {"tested_on": "COLO 205", "assay": "Cytotoxicity against Homo sapiens (human) COLO205 cells assessed as cell growth at 10 uM after 48 hr by SRB assay relative to control", "settings": "COLO 205, 48 h, read-out: Activity"}, "SK-MEL-5 [6]": {"tested_on": "SK-MEL-5", "assay": "Cytotoxicity against Homo sapiens (human) SK-MEL-5 cells assessed as cell growth at 10 uM after 48 hr by SRB assay relative to control", "settings": "SK-MEL-5, 48 h, read-out: Activity"}, "NCI-H460 [7]": {"tested_on": "NCI-H460", "assay": "Cytotoxicity against Homo sapiens (human) NCI-H460 cells after 48 hr by SRB assay", "settings": "NCI-H460, 48 h"}, "SNB-75": {"tested_on": "SNB-75", "assay": "Cytotoxicity against Homo sapiens (human) SNB75 cells assessed as cell growth at 10 uM after 48 hr by SRB assay relative to control", "settings": "SNB-75, 48 h, read-out: Activity"}, "SF-539": {"tested_on": "SF-539", "assay": "Cytotoxicity against Homo sapiens (human) SF539 cells assessed as cell growth at 10 uM after 48 hr by SRB assay relative to control", "settings": "SF-539, 48 h, read-out: Activity"}, "[8]": {"tested_on": "Photobacterium leiognathi", "assay": "Growth inhibition of Photobacterium leiognathi Sh1 assessed as bio-luminescence at 0.1 mg/ml after 16 to 18 hr by chronic action test relative to control", "set-up": "scale not given: the % may be the effect or the level left"}, "MDA-MB-231": {"tested_on": "MDA-MB-231", "assay": "Cytotoxicity against Homo sapiens (human) MDA-MB-231 cells assessed as cell growth at 10 uM after 48 hr by SRB assay relative to control", "settings": "MDA-MB-231, 48 h, read-out: Activity"}, "U-251": {"tested_on": "U-251", "assay": "Cytotoxicity against Homo sapiens (human) U251 cells assessed as cell growth at 10 uM after 48 hr by SRB assay relative to control", "settings": "U-251, 48 h, read-out: Activity"}, "[9]": {"tested_on": "Photobacterium leiognathi", "assay": "Growth inhibition of Photobacterium leiognathi Sh1 assessed as bio-luminescence at 0.025 mg/ml after 10 min by acute action test relative to control", "set-up": "scale not given: the % may be the effect or the level left"}, "SK-MEL-5 [10]": {"tested_on": "SK-MEL-5", "assay": "Cytotoxicity against Homo sapiens (human) SK-MEL-5 cells after 48 hr by SRB assay", "settings": "SK-MEL-5, 48 h"}, "NCI-H522": {"tested_on": "NCI-H522", "assay": "Cytotoxicity against Homo sapiens (human) NCI-H522 cells after 48 hr by SRB assay", "settings": "NCI-H522, 48 h"}, "[11]": {"tested_on": "Photobacterium leiognathi", "assay": "Growth inhibition of Photobacterium leiognathi Sh1 assessed as bio-luminescence at 0.25 mg/ml after 10 min by acute action test relative to control", "set-up": "scale not given: the % may be the effect or the level left"}, "UO-31": {"tested_on": "UO-31", "assay": "Cytotoxicity against Homo sapiens (human) UO31 cells assessed as cell growth at 10 uM after 48 hr by SRB assay relative to control", "settings": "UO-31, 48 h, read-out: Activity"}, "SW-620": {"tested_on": "SW-620", "assay": "Cytotoxicity against Homo sapiens (human) SW620 cells assessed as cell growth at 10 uM after 48 hr by SRB assay relative to control", "settings": "SW-620, 48 h, read-out: Activity"}, "HCT-116": {"tested_on": "HCT-116", "assay": "Cytotoxicity against Homo sapiens (human) HCT116 cells assessed as cell growth at 10 uM after 48 hr by SRB assay relative to control", "settings": "HCT-116, 48 h, read-out: Activity"}, "HOP-62": {"tested_on": "HOP-62", "assay": "Cytotoxicity against Homo sapiens (human) HOP62 cells after 48 hr by SRB assay", "settings": "HOP-62, 48 h"}, "[12]": {"tested_on": "Photobacterium leiognathi", "assay": "Growth inhibition of Photobacterium leiognathi Sh1 assessed as bio-luminescence at 0.1 mg/ml after 10 min by acute action test relative to control", "set-up": "scale not given: the % may be the effect or the level left"}, "KM12": {"tested_on": "KM12", "assay": "Cytotoxicity against Homo sapiens (human) KM12 cells assessed as cell growth at 10 uM after 48 hr by SRB assay relative to control", "settings": "KM12, 48 h, read-out: Activity"}, "CAKI-1": {"tested_on": "CAKI-1", "assay": "Cytotoxicity against Homo sapiens (human) Caki1 cells assessed as cell growth at 10 uM after 48 hr by SRB assay relative to control", "settings": "CAKI-1, 48 h, read-out: Activity"}, "BT-549": {"tested_on": "BT-549", "assay": "Cytotoxicity against Homo sapiens (human) BT549 cells assessed as cell growth at 10 uM after 48 hr by SRB assay relative to control", "settings": "BT-549, 48 h, read-out: Activity"}, "[13]": {"settings": "read-out: pLC50 (the source's name) (converted)"}}, "data": [{"smiles": "O=C(CSc1nc2ccccc2c2nc(=O)c(-c3ccccc3)nn12)NCc1ccc(F)cc1", "values": [{"measurement": "growth at 10 µM", "setting": "HT-29", "result": 30.9, "unit": "%"}, {"measurement": "growth at 10 µM", "setting": "ACHN", "result": 43.7, "unit": "%"}, {"measurement": "growth at 10 µM", "setting": "A498 [1]", "result": 24.8, "unit": "%"}, {"measurement": "GI50", "setting": "A498 [2]", "result": 1.12, "unit": "µM"}, {"measurement": "LC50", "setting": "A498 [2]", "result": "> 100", "unit": "µM"}, {"measurement": "TGI", "setting": "A498 [2]; read-out: pTGI (converted)", "result": 34.7, "unit": "µM"}, {"measurement": "Activity", "setting": "[3]", "result": 90.9, "unit": "%"}, {"measurement": "Activity", "setting": "[4]", "result": 166.7, "unit": "%"}, {"measurement": "growth at 10 µM", "setting": "SF-268", "result": 51.2, "unit": "%"}, {"measurement": "growth at 10 µM", "setting": "NCI-H460 [5]", "result": -25.4, "unit": "%"}, {"measurement": "growth at 10 µM", "setting": "COLO 205", "result": 30.8, "unit": "%"}, {"measurement": "growth at 10 µM", "setting": "SK-MEL-5 [6]", "result": 17.9, "unit": "%"}, {"measurement": "GI50", "setting": "NCI-H460 [7]", "result": 2.57, "unit": "µM"}, {"measurement": "CC50", "setting": "NCI-H460 [7]; [13]", "result": "> 100", "unit": "µM"}, {"measurement": "TGI", "setting": "NCI-H460 [7]; read-out: pTGI", "result": "> 100", "unit": "µM"}, {"measurement": "growth at 10 µM", "setting": "SNB-75", "result": 44.3, "unit": "%"}, {"measurement": "growth at 10 µM", "setting": "SF-539", "result": 30.8, "unit": "%"}, {"measurement": "Activity", "setting": "[8]", "result": 76.9, "unit": "%"}, {"measurement": "growth at 10 µM", "setting": "MDA-MB-231", "result": 15.7, "unit": "%"}, {"measurement": "growth at 10 µM", "setting": "U-251", "result": 19.9, "unit": "%"}, {"measurement": "Activity", "setting": "[9]", "result": 77.8, "unit": "%"}, {"measurement": "GI50", "setting": "SK-MEL-5 [10]", "result": 3.02, "unit": "µM"}, {"measurement": "LC50", "setting": "SK-MEL-5 [10]", "result": "> 100", "unit": "µM"}, {"measurement": "TGI", "setting": "SK-MEL-5 [10]; read-out: pTGI", "result": "> 100", "unit": "µM"}, {"measurement": "GI50", "setting": "NCI-H522", "result": 2.51, "unit": "µM"}, {"measurement": "CC50", "setting": "NCI-H522; [13]", "result": "> 100", "unit": "µM"}, {"measurement": "TGI", "setting": "NCI-H522; read-out: pTGI (converted)", "result": 31.6, "unit": "µM"}, {"measurement": "Activity", "setting": "[11]", "result": 91.7, "unit": "%"}, {"measurement": "growth at 10 µM", "setting": "UO-31", "result": 12.7, "unit": "%"}, {"measurement": "growth at 10 µM", "setting": "SW-620", "result": 45.7, "unit": "%"}, {"measurement": "growth at 10 µM", "setting": "HCT-116", "result": 38.9, "unit": "%"}, {"measurement": "GI50", "setting": "HOP-62", "result": 1.74, "unit": "µM"}, {"measurement": "LC50", "setting": "HOP-62", "result": "> 100", "unit": "µM"}, {"measurement": "TGI", "setting": "HOP-62; read-out: pTGI (converted)", "result": 6.92, "unit": "µM"}, {"measurement": "Activity", "setting": "[12]", "result": 78.8, "unit": "%"}, {"measurement": "growth at 10 µM", "setting": "KM12", "result": 9.97, "unit": "%"}, {"measurement": "growth at 10 µM", "setting": "CAKI-1", "result": -5.36, "unit": "%"}, {"measurement": "growth at 10 µM", "setting": "BT-549", "result": 45.9, "unit": "%"}]}]}
